Measured values from patent US20250382344A1, “Soluble GLP1/GIP/NPY2 Receptor Triple Agonists” (Boehringer Ingelheim International GmH, priority 2024, published 2025).
Where two headings read alike, the source gives them in different places. *1 amine or outer side, *2 acyl side, *3 side chain or, on linkers, in order; H or OH if unused. Where no end group is shown, it is not given here. Side-chain parts run from the residue outwards. [ ]: non-standard residue; d: D form. The star is where a group is joined. C18 diacid = O=C(O)CCCCCCCCCCCCCCCCC(=O)*; γGlu = O=C(O)[C@H](CCC(=O)[*:2])N[*:1]; NMeQ = CN[C@@H](CCC(N)=O)C(=O)O; Aib = CC(C)(N)C(=O)O

T1: hGIPR (Homo sapiens, UniProt P48546)
T1 construct: expressed in transfected cells; host or cells: CHO CRE-luciferase reporter cells
T1 sequence (P48546 22-466): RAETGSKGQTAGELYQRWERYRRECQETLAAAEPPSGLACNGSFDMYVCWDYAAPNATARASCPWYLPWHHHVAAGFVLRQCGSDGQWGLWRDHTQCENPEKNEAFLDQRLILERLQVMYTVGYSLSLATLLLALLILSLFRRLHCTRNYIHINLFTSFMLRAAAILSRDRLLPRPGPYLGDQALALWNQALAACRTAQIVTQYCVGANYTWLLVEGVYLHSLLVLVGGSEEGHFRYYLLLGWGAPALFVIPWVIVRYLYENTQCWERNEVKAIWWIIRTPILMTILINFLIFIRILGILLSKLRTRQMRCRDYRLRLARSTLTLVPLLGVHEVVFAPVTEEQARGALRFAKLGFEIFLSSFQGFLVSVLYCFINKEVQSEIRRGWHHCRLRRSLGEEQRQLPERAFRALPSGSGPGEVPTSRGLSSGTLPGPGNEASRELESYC

T2: human neuropeptide Y2 receptor (human, UniProt P49146 1-381)
T2 sequence (looked up): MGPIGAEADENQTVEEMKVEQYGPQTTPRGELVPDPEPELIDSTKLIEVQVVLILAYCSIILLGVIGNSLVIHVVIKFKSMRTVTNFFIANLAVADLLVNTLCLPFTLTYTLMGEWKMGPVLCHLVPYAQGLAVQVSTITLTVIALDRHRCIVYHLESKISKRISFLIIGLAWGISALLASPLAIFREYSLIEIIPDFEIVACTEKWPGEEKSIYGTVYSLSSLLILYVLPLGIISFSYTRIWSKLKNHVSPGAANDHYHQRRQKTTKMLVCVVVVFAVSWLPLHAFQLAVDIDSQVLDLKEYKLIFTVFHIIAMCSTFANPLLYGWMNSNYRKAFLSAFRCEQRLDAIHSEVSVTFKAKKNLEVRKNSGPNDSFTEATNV


Columns and labels:
hGIPR = target: T1, hGIPR; assay: hGIPR CreLuc assay in 0.5% and 100% plasma (CHO CRE-luciferase reporter cells); type: cell-based
[1] = Solubility in 0.1 M phosphate buffer at pH 7; type: physicochemical; settings: 0.1 M phosphate buffer at pH 7, 10 mg/mL final peptide concentration, shaking 2 hours at room temperature, peptides as TFA-salts, measured sample pH 6.5-7.0
[2] = target: T2, human neuropeptide Y2 receptor; assay: cell-based or functional assay
[3] = 0.5% human plasma, read-out: hGIPR 0.5% hP

Molecule	EC50 (hGIPR; [3]) [nM]	solubility ([1]; read-out: Solubility) [µg/mL]	solubility at 2 h [1] [µg/mL]	EC50 (hGIPR; 100% human plasma, read-out: hGIPR 100% hP) [nM]	EC50, CreLuc reporter, 0.5% hP [2] [nM]	EC50, CreLuc reporter, 100% hP [2] [nM]
CC[C@H](C)[C@H](NC(=O)[C@H](CC(C)C)NC(=O)[C@H](Cc1c[nH]cn1)NC(=O)[C@H](CCCNC(=N)N)NC(=O)[C@@H](NC(=O)[C@H](Cc1ccccc1)NC(=O)[C@H](CCC(=O)O)NC(=O)C(C)(C)NC(=O)[C@H](CCC(N)=O)NC(=O)[C@H](C)NC(=O)[C@H](CCC(N)=O)NC(=O)[C@H](CCCCN)NC(=O)[C@H](CCC(=O)O)NC(=O)[C@H](CC(C)C)NC(=O)C(C)(C)NC(=O)[C@@H](NC(=O)[C@H](CO)NC(=O)[C@H](Cc1ccc(O)cc1)NC(=O)[C@H](CC(=O)O)NC(=O)[C@H](CO)NC(=O)[C@@H](NC(=O)[C@H](Cc1ccccc1)NC(=O)[C@@H](NC(=O)CNC(=O)[C@H](CCC(=O)O)NC(=O)C(C)(C)NC(=O)[C@@H](N)Cc1ccc(O)cc1)[C@@H](C)O)[C@@H](C)O)[C@@H](C)CC)C(C)C)C(=O)N[C@@H](CC(N)=O)C(=O)N[C@@H](CCCCNC(=O)[C@@H](N)CCCCNC(=O)CC[C@H](NC(=O)CC[C@H](NC(=O)CC[C@H](NC(=O)CC[C@H](NC(=O)CC[C@H](NC(=O)CC[C@H](NC(=O)CCCCCCCCCCCCCCCCCCC(=O)O)C(=O)O)C(=O)O)C(=O)O)C(=O)O)C(=O)O)C(=O)O)C(=O)NC(C)(C)C(=O)N[C@H](C(=O)N[C@@H](CCCNC(=N)N)C(=O)N[C@@H](CCC(N)=O)C(=O)N[C@@H](CCCNC(=N)N)C(=O)N[C@@H](Cc1ccc(O)cc1)C(N)=O)[C@@H](C)O [Compound 149, Y-Aib-E-G-T-F-T-S-D-Y-S-I-Aib-L-E-K-Q-A-Q-Aib-E-F-V-R-H-L-I-N-K(1,3)-Aib-T-R-Q-R-Y-NH2.C20DA-gGlu-gGlu-gGlu-gGlu-gGlu-gGlu-eLys(1,2)]	0.6	4900				
CC[C@H](C)[C@H](NC(=O)[C@H](CC(C)C)NC(=O)[C@H](Cc1c[nH]cn1)NC(=O)[C@H](CCCNC(=N)N)NC(=O)[C@@H](NC(=O)[C@H](Cc1ccccc1)NC(=O)[C@H](C)NC(=O)C(C)(C)NC(=O)[C@H](CCC(N)=O)NC(=O)[C@H](C)NC(=O)[C@H](CCC(N)=O)NC(=O)[C@H](CCC(=O)O)NC(=O)[C@H](CC(=O)O)NC(=O)[C@H](CC(C)C)NC(=O)C(C)(C)NC(=O)[C@@H](NC(=O)[C@H](CO)NC(=O)[C@H](Cc1ccc(O)cc1)NC(=O)[C@H](CC(=O)O)NC(=O)[C@H](CO)NC(=O)[C@@H](NC(=O)[C@H](Cc1ccccc1)NC(=O)[C@@H](NC(=O)CNC(=O)[C@H](CCC(=O)O)NC(=O)C(C)(C)NC(=O)[C@@H](N)Cc1ccc(O)cc1)[C@@H](C)O)[C@@H](C)O)[C@@H](C)CC)C(C)C)C(=O)N[C@@H](CC(N)=O)C(=O)N[C@@H](CCCCNC(=O)[C@@H](N)CCCCNC(=O)[C@@H](N)CCCCNC(=O)CC[C@H](NC(=O)CC[C@H](NC(=O)CC[C@H](NC(=O)CC[C@H](NC(=O)CC[C@H](NC(=O)CCCCCCCCCCCCCCCCCCC(=O)O)C(=O)O)C(=O)O)C(=O)O)C(=O)O)C(=O)O)C(=O)NC(C)(C)C(=O)N[C@H](C(=O)N[C@@H](CCCNC(=N)N)C(=O)N[C@@H](CCC(N)=O)C(=O)N[C@@H](CCCNC(=N)N)C(=O)N[C@@H](Cc1ccc(O)cc1)C(N)=O)[C@@H](C)O [Compound 155, Y-Aib-E-G-T-F-T-S-D-Y-S-I-Aib-L-D-E-Q-A-Q-Aib-A-F-V-R-H-L-I-N-K(1,3)-Aib-T-R-Q-R-Y-NH2.C20DA-gGlu-gGlu-gGlu-gGlu-gGlu-eLys-eLys(1,2)]	0.7		8900			
CC[C@H](C)[C@H](NC(=O)[C@H](CC(C)C)NC(=O)[C@H](Cc1c[nH]cn1)NC(=O)[C@H](CCCNC(=N)N)NC(=O)[C@@H](NC(=O)[C@H](Cc1ccccc1)NC(=O)[C@H](C)NC(=O)C(C)(C)NC(=O)[C@H](CCC(N)=O)NC(=O)[C@H](C)NC(=O)[C@H](CCC(N)=O)NC(=O)[C@H](CCCCN)NC(=O)[C@H](CCC(=O)O)NC(=O)[C@H](CC(C)C)NC(=O)C(C)(C)NC(=O)[C@@H](NC(=O)[C@H](CO)NC(=O)[C@H](Cc1ccc(O)cc1)NC(=O)[C@H](CC(=O)O)NC(=O)[C@H](CO)NC(=O)[C@@H](NC(=O)[C@H](Cc1ccccc1)NC(=O)[C@@H](NC(=O)CNC(=O)[C@H](CCC(=O)O)NC(=O)C(C)(C)NC(=O)[C@@H](N)Cc1ccc(O)cc1)[C@@H](C)O)[C@@H](C)O)[C@@H](C)CC)C(C)C)C(=O)N[C@@H](CC(N)=O)C(=O)N[C@@H](CCCCNC(=O)[C@@H](N)CCCCNC(=O)CC[C@H](NC(=O)CC[C@H](NC(=O)CC[C@H](NC(=O)CC[C@H](NC(=O)CC[C@H](NC(=O)CC[C@H](NC(=O)CCCCCCCCCCCCCCCCC(=O)O)C(=O)O)C(=O)O)C(=O)O)C(=O)O)C(=O)O)C(=O)O)C(=O)N[C@@H](C)C(=O)N[C@H](C(=O)N[C@@H](CCCNC(=N)N)C(=O)N[C@@H](CCC(N)=O)C(=O)N[C@@H](CCCNC(=N)N)C(=O)N[C@@H](Cc1ccc(O)cc1)C(N)=O)[C@@H](C)O [Compound 159, Y-Aib-E-G-T-F-T-S-D-Y-S-I-Aib-L-E-K-Q-A-Q-Aib-A-F-V-R-H-L-I-N-K(1,3)-A-T-R-Q-R-Y-NH2.C18DA-gGlu-gGlu-gGlu-gGlu-gGlu-gGlu-eLys(1,2)]	0.2		9600			
Y[Aib]EGTFTSDYSI[Aib]LEKQAQ[Aib]AFVRHLINK([γGlu-γGlu-γGlu-γGlu-γGlu-γGlu-C18 diacid])[Aib]TR[NMeQ]RY-NH2 [Compound 2]					89.9	258

The remaining lines, values ahead:

EC50 (hGIPR; [3]) [nM]	solubility ([1]; read-out: Solubility) [µg/mL]	solubility at 2 h [1] [µg/mL]	EC50 (hGIPR; 100% human plasma, read-out: hGIPR 100% hP) [nM]	EC50, CreLuc reporter, 0.5% hP [2] [nM]	EC50, CreLuc reporter, 100% hP [2] [nM]	Molecule
0.2		8200				CC[C@H](C)[C@H](NC(=O)[C@H](CC(C)C)NC(=O)[C@H](Cc1c[nH]cn1)NC(=O)[C@H](CCCNC(=N)N)NC(=O)[C@@H](NC(=O)[C@H](Cc1ccccc1)NC(=O)[C@H](C)NC(=O)C(C)(C)NC(=O)[C@H](CCC(N)=O)NC(=O)[C@H](C)NC(=O)[C@H](CCC(N)=O)NC(=O)[C@H](CCCCN)NC(=O)[C@H](CCC(=O)O)NC(=O)[C@H](CC(C)C)NC(=O)C(C)(C)NC(=O)[C@@H](NC(=O)[C@H](CO)NC(=O)[C@H](Cc1ccc(O)cc1)NC(=O)[C@H](CC(=O)O)NC(=O)[C@H](CO)NC(=O)[C@@H](NC(=O)[C@H](Cc1ccccc1)NC(=O)[C@@H](NC(=O)CNC(=O)[C@H](CCC(=O)O)NC(=O)C(C)(C)NC(=O)[C@@H](N)Cc1ccc(O)cc1)[C@@H](C)O)[C@@H](C)O)[C@@H](C)CC)C(C)C)C(=O)N[C@@H](CC(N)=O)C(=O)N[C@@H](CCCCNC(=O)CC[C@H](NC(=O)CC[C@H](NC(=O)CC[C@H](NC(=O)[C@@H](N)CCCCNC(=O)CC[C@H](NC(=O)CC[C@H](NC(=O)CC[C@H](NC(=O)CCCCCCCCCCCCCCCCC(=O)O)C(=O)O)C(=O)O)C(=O)O)C(=O)O)C(=O)O)C(=O)O)C(=O)NC(C)(C)C(=O)N[C@H](C(=O)N[C@@H](CCCNC(=N)N)C(=O)N[C@@H](CCC(N)=O)C(=O)N[C@@H](CCCNC(=N)N)C(=O)N[C@@H](Cc1ccc(O)cc1)C(N)=O)[C@@H](C)O [Compound 168, Y-Aib-E-G-T-F-T-S-D-Y-S-I-Aib-L-E-K-Q-A-Q-Aib-A-F-V-R-H-L-I-N-K(1,3)-Aib-T-R-Q-R-Y-NH2.C18DA-gGlu-gGlu-gGlu-eLys-gGlu-gGlu-gGlu(1,2)]
0.2		8400	5.6			CC[C@H](C)[C@H](NC(=O)[C@H](CC(C)C)NC(=O)[C@H](Cc1c[nH]cn1)NC(=O)[C@H](CCCNC(=N)N)NC(=O)[C@@H](NC(=O)[C@H](Cc1ccccc1)NC(=O)[C@H](C)NC(=O)C(C)(C)NC(=O)[C@H](CCC(N)=O)NC(=O)[C@H](C)NC(=O)[C@H](CCC(N)=O)NC(=O)[C@H](CCCCN)NC(=O)[C@H](CCC(=O)O)NC(=O)[C@H](CC(C)C)NC(=O)C(C)(C)NC(=O)[C@@H](NC(=O)[C@H](CO)NC(=O)[C@H](Cc1ccc(O)cc1)NC(=O)[C@H](CC(=O)O)NC(=O)[C@H](CO)NC(=O)[C@@H](NC(=O)[C@H](Cc1ccccc1)NC(=O)[C@@H](NC(=O)CNC(=O)[C@H](CCC(=O)O)NC(=O)C(C)(C)NC(=O)[C@@H](N)Cc1ccc(O)cc1)[C@@H](C)O)[C@@H](C)O)[C@@H](C)CC)C(C)C)C(=O)N[C@@H](CC(N)=O)C(=O)N[C@@H](CCCCNC(=O)CCCCCNC(=O)CC[C@H](NC(=O)CCCCCNC(=O)CC[C@H](NC(=O)CC[C@H](NC(=O)CC[C@H](NC(=O)CC[C@H](NC(=O)CCCCCCCCCCCCCCCCCCC(=O)O)C(=O)O)C(=O)O)C(=O)O)C(=O)O)C(=O)O)C(=O)NC(C)(C)C(=O)N[C@H](C(=O)N[C@@H](CCCNC(=N)N)C(=O)N[C@@H](CCC(N)=O)C(=O)N[C@@H](CCCNC(=N)N)C(=O)N[C@@H](Cc1ccc(O)cc1)C(N)=O)[C@@H](C)O [Compound 175, Y-Aib-E-G-T-F-T-S-D-Y-S-I-Aib-L-E-K-Q-A-Q-Aib-A-F-V-R-H-L-I-N-K(1,3)-Aib-T-R-Q-R-Y-NH2.C20DA-gGlu-gGlu-gGlu-gGlu-AHX-gGlu-AHX(1,2)]
